Values of other authors as cited in US20100212666A1 (priority 2006, published 2010).

Conditions: in vivo

CC(C)c1cccc(C(C)C)c1O [propofol]
Effect on resting ventilation at 1 C50 for respiratory depression: minimally depresses resting ventilation | Sedation at 1 C50 for respiratory depression: adequate sedation
